According to publication PMC10654576, “Isothermal chemical denaturation assay for monitoring protein stability and inhibitor interactions” (Scientific Reports, 2023):
“Also recorded” adds a separate entry of the source. Blank lines part the entries; values can stand above or below the compound they belong to.

Columns and labels:
KRAS^G12V = target: T1, KRAS^G12V (Homo sapiens, UniProt P01116, G12V); test: FRET-Probe isothermal chemical denaturation (ICD) assay, KRAS^G12V; type: binding; details: for S/B ratio, denaturation with and without GTP: 1 µM GTP
T1 construct: Monomer (2-188); host or cells: E. coli
Method: (§1) All isothermal chemical denaturation (ICD) assays were conducted in triplicates at RT using a single-step protocol with 25 µL final volume. Sample protein and ligand were added in 5 µL in a buffer (10 mM HEPES (pH 7.5), 10 mM NaCl, (v/v) 0.01% Brij 30) without denaturant. FRET-Probe (0.5 nM) was added to the assay buffer supplemented with chemical denaturant, urea (0–5 M), ethanol (0–30%) or 1-propanol (0–50%). Additionally, 0.2 mM EDTA was used in combination with alcohols.
(§2) In all ICD protein assays, time-resolved Förster resonance energy transfer (TR-FRET) signal was monitored kinetically at multiple time points during 150 min incubation. In all assays with protein binding ligands, 30 min preincubation prior denaturant addition was performed. In acid induced denaturation assay, GTP (0–2 µM) and NADH (0–50 µM) were titrated with KRAS^G12V and MDH, respectively. 1-propanol (30–50%) ICD assays were also performed for MDH in the presence of NADH (0–50 µM) and (20%) for KRAS^G12V using GTP (0–10 µM). […] Additionally, urea was tested with 1 µM GTP with KRAS^G12V.

MDH [1] = target: T2, MDH (Sus scrofa, UniProt P00346); test: FRET-Probe isothermal chemical denaturation (ICD) assay, MDH; type: binding; details: 25 nM MDH
T2 construct: purchased Sigma-Aldrich (St. Louis, MO, USA)
T2 sequence (P00346 25-338): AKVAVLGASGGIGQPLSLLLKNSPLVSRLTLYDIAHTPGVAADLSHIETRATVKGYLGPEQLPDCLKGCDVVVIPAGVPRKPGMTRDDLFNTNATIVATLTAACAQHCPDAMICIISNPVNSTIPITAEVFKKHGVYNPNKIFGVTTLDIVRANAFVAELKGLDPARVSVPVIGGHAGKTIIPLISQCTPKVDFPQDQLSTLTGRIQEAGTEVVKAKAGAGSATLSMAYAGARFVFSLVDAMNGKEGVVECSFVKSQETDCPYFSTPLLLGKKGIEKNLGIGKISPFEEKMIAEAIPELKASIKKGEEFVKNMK
Method: as §1, §2

[2] = target: T3, malate dehydrogenase (MDH) (Sus scrofa, UniProt P00346); test: FRET-Probe thermal shift assay (TSA), MDH with NADH; type: binding; details: for Tm of MDH with NADH: 25 nM MDH
T3 construct: purchased Sigma-Aldrich (St. Louis, MO, USA)
T3 sequence (P00346 25-338): T2 sequence (P00346 25-338)
Method: All FRET-Probe TSA were conducted in triplicates using a single-step protocol, by adding the sample protein in 5 µL and FRET-Probe (0.5 nM) in 20 µL volumes. All concentrations are reported in a 25 µL final volume. Assays were performed in an assay buffer containing 10 mM HEPES (pH 7.5) supplemented with 0.001% (v/v) Triton X-100.

MDH [3] = target: MDH; set-up: method as in PMID 225321; details: MDH/NADH interaction; cited from earlier work

Compound: Nc1ncnc2c1ncn2[C@@H]1O[C@H](COP(=O)(O)OP(=O)(O)OP(=O)(O)O)[C@@H](O)[C@H]1O [ATP]
- TR-FRET signal level compared with protein alone (KRAS^G12V; 50 nM KRAS^G12V, pH 5, 2 and 10 µM ATP): no change of signal level; also recorded: in the same range

- S/B ratio, denaturation with and without GTP (KRAS^G12V; 50 nM KRAS^G12V, 1 M urea, 60 min): 15.1
- S/B ratio, denaturation with and without GTP (KRAS^G12V; 50 nM KRAS^G12V, 2 M urea, 60 min): 20.3
- EC50 (KRAS^G12V; 50 nM KRAS^G12V, pH 5 denaturation buffer, 30 min): 4.5 ± 1.9 nM
- EC50 (KRAS^G12V; 50 nM KRAS^G12V, pH 5 denaturation buffer, 60 min): 2.6 ± 0.7 nM
- EC50 (KRAS^G12V; 50 nM KRAS^G12V, pH 5 denaturation buffer, 90 min): 3.5 ± 0.1 nM
- EC50 (KRAS^G12V; 50 nM KRAS^G12V, pH 5 denaturation buffer, 120 min): 4.6 ± 0.3 nM
- EC50 (KRAS^G12V; KRAS^G12V, 20% 1-propanol, 30 min): 3.6 ± 0.5 nM
- EC50 (KRAS^G12V; KRAS^G12V, 20% 1-propanol, 60 min): 3.8 ± 0.4 nM
- EC50 (KRAS^G12V; KRAS^G12V, 20% 1-propanol, 90 min): 5.2 ± 1.2 nM
- EC50 (KRAS^G12V; KRAS^G12V, 20% 1-propanol, 120 min): 5.2 ± 0.7 nM
Compound: Nc1nc2c(ncn2[C@@H]2O[C@H](COP(=O)(O)OP(=O)(O)OP(=O)(O)O)[C@@H](O)[C@H]2O)c(=O)[nH]1 [GTP, guanosine-5'-triphosphate]

- EC50 (MDH [1]; 30–50% 1-propanol, 60 min incubation): 29000 to 38000 nM
- EC50 (MDH [1]; pH 5 denaturation buffer, RT, 90 min incubation): 4700 ± 800 nM
- ligand-induced stabilization of MDH (MDH [1]; pH 5, 5 and 50 µM NADH, RT): clear ligand-induced stabilization
- Tm of MDH with NADH ([2]; 5 µM NADH): 47.9 ± 0.6 °C
- Tm of MDH with NADH ([2]; 50 µM NADH): 51.7 ± 0.2 °C
- Δ Tm of MDH ([2]; 5 µM NADH): 1.2 °C
- Δ Tm of MDH ([2]; 50 µM NADH): 5.0 °C
Compound: NC(=O)C1=CN([C@@H]2O[C@H](COP(=O)(O)OP(=O)(O)OC[C@H]3O[C@@H](n4cnc5c(N)ncnc54)[C@H](O)[C@@H]3O)[C@@H](O)[C@H]2O)C=CC1 [NADH, reduced nicotinamide adenine dinucleotide]
- Kd (MDH [3]): 3800 nM
